In PMC6264296, “1,3-Substituted Imidazolidine-2,4,5-triones: Synthesis and Inhibition of Cholinergic Enzymes” (Molecules, 2011):
Like-named read-outs stand apart in the source and are kept apart here.

What was measured:
[1] = Partition coefficient log Kow (n-octanol/water), shake-flask method; format: physicochemical; details: mean ± SD (n = 3 experiments)
Description: Before the partition coefficient is determined, the two solvents are mutually saturated at the temperature of the experiment. To do this, it is practical to shake two large stock bottles, one containing n-octanol and a sufficient quantity of water, and the other containing water and a sufficient quantity of n-octanol, for 24 hours on a mechanical shaker and then to let them stand long enough to allow the phases to separate.
The procedure of determination was the following: n-Octanol (2 mL) was placed in a test tube. Then an octanol solution of the chosen inhibitor (15 μL, 0.01 M) was added. Mixture was intensively shaken for 15 min. This mixture (1 mL) was placed into the cell, and its absorbance at the absorption maximum wavelength was measured. The reference solution was n-octanol. The value of absorbance corresponding to 100% of the chosen inhibitor in n-octanol was obtained. An n-octanol solution of the chosen inhibitor (0.01 M, 15 μL) was added into the mixture of n-octanol and water (1:1, total volume 4 mL). The mixture was intensively shaken for 15 min and then centrifuged (3,000 rpm, 10 min). One mL of the n-octanol layer was put into the cell, and its absorbance at the wavelength of absorption maximum was measured. The comparative solution was n-octanol again. The percentage content of chosen inhibitor in the octanol layer (%) was obtained. The n-octanol/water partition coefficient is defined as Pow = c1/c2, where c1 and c2 are molar concentrations of tested compounds in n-octanol and water. For each compound, at least three determinations were performed.

[2] = target: T1, butyrylcholinesterase from equine serum (Equus caballus, UniProt P81908); assay: biochemical
T1 construct: butyrylcholinesterase isolated from equine serum; purchased Sigma; host or cells: equine serum
Description: (§1) The ability of all tested compounds to inhibit acetylcholinesterase from electric eel (Electrophorus electricus L.) and butyrylcholinesterase from equine serum (both purchased from Sigma) was tested. […] The IC50 values were determined by the spectrophotometric Ellman’s method.
(§2) The Ellman’s method is a simple, rapid and direct method to determine the SH and –S–S– group content in proteins. This method is widely used for measuring of cholinesterase activity and effectivity of cholinesterase inhibitors. Cholinesterase activity is measured indirectly by quantifying the concentration of 5-thio-2-nitrobenzoic acid (TNB) ion formed in the reaction between the thiol reagent 5,5′-dithiobis-2-nitrobenzoic acid (DTNB) and thiocholine, a product of substrate (i.e., acetylthiocholine, ATCh) hydrolysis by the cholinesterase. All tested compounds were dissolved in dioxane (concentration 0.01 M) and then diluted in demineralized water (concentration 0.001 M and 0.0001 M). The procedure of determination of IC50 is in detail described in [49]. For determination of IC50 values the inhibition was determined at 12 different compound concentrations with three replicates.

[3] = target: T2, acetylcholinesterase from electric eel (Electrophorus electricus, UniProt O42275); assay: biochemical
T2 construct: purchased Sigma
Description: as §1, §2

[4] = equine serum BChE, Ellman's method, mean ± SD (n = 3 experiments), read-out: BChE IC50
[5] = electric eel AChE, Ellman's method, mean ± SD (n = 3 experiments), read-out: AChE IC50

T2 sequence (O42275 24-633): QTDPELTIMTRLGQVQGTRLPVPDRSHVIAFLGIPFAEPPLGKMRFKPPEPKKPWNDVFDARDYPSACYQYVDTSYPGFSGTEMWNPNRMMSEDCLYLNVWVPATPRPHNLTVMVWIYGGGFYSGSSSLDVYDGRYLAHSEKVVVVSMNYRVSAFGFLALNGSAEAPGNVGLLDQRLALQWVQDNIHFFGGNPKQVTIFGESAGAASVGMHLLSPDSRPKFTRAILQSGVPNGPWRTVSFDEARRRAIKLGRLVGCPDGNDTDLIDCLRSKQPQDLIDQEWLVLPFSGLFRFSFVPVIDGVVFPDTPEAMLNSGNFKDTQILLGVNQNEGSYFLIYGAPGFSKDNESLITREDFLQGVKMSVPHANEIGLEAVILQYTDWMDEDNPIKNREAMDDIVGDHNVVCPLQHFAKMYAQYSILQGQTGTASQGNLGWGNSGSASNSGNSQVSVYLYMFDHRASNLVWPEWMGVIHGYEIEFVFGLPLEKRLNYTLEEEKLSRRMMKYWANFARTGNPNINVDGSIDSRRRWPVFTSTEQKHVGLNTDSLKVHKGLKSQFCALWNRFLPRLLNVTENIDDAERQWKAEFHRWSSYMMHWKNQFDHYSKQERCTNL
T1 sequence (P81908 whole entry): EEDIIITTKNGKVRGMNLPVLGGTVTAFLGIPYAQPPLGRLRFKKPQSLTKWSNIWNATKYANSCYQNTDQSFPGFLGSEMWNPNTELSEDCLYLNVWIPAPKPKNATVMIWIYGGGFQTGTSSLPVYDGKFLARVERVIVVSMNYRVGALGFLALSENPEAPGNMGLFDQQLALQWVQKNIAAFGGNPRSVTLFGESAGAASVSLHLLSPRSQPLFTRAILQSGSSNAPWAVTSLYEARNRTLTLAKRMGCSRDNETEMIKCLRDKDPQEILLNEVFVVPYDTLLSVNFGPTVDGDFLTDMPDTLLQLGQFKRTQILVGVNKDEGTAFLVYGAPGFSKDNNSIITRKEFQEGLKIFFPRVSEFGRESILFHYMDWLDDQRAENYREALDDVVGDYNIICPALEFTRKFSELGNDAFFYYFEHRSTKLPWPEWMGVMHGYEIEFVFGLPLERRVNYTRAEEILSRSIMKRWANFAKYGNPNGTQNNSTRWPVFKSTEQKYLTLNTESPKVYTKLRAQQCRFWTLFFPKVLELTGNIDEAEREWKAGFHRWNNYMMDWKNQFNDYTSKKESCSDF

SMILES | log Kow [1] | log Kow ([1]; listed as 4f) | IC50 [2, 4] | IC50 [3, 5] | IC50 [2] | IC50 [3]
C[C@H](c1nc2ccc(F)cc2s1)N1C(=O)C(=O)N(c2ccc(C#N)cc2)C1=O [Compound 3f, 1-(4-Cyanophenyl)-3-[(1R)-1-(6-fluoro-1,3-benzothiazol-2-yl)ethyl]imidazolidine-2,4,5-trione] | 0.41 ± 0.02 | lowest lipophilicity | 10.5 ± 0.18 µM | 19.1 ± 0.27 µM |  | 
Cc1ccc(N2C(=O)C(=O)N([C@H](C)c3nc4ccc(F)cc4s3)C2=O)cc1Cl [Compound 3h, 1-(3-Chloro-4-methylphenyl)-3-[(1R)-1-(6-fluoro-1,3-benzothiazol-2-yl)ethyl]imidazolidine-2,4,5-trione] | 0.50 ± 0.02 |  |  |  | 17 ± 0.1 µM | 15.5 ± 0.2 µM
C[C@H](c1nc2ccc(F)cc2s1)N1C(=O)C(=O)N(c2ccccc2)C1=O [Compound 3a, 1-[(1R)-1-(6-Fluoro-1,3-benzothiazol-2-yl)ethyl]-3-phenylimidazolidine-2,4,5-trione] |  |  | 14.5 ± 0.21 µM | 21.4 ± 0.19 µM |  | 
C[C@H](c1nc2ccc(F)cc2s1)N1C(=O)C(=O)N(c2cc(Cl)cc(Cl)c2)C1=O [Compound 3j, 1-(3,5-Dichlorophenyl)-3-[(1R)-1-(6-fluoro-1,3-benzothiazol-2-yl)ethyl]imidazolidine-2,4,5-trione] | 0.77 ± 0.03 |  |  |  | 29.5 ± 0.39 µM | 17 ± 0.38 µM
CC(C)c1cccc(C(C)C)c1N1C(=O)C(=O)N([C@H](C)c2nc3ccc(F)cc3s2)C1=O [Compound 3g, 1-(2,6-Diisopropylphenyl)-3-[(1R)-1-(6-fluoro-1,3-benzothiazol-2-yl)ethyl]imidazolidine-2,4,5-trione] | 0.98 ± 0.08 |  | 30.2 ± 0.45 µM | 15.1 ± 0.29 µM |  | 
C[C@H](c1nc2ccc(F)cc2s1)N1C(=O)C(=O)N(c2cccc(C(F)(F)F)c2)C1=O [Compound 3b, 1-(3-Trifluoromethylphenyl)-3-[(1R)-1-(6-fluoro-1,3-benzothiazol-2-yl)ethyl]imidazolidine-2,4,5-trione] | 1.12 ± 0.15 |  | 17.4 ± 0.37 µM | 23.4 ± 0.28 µM |  | 
COc1ccc(N2C(=O)C(=O)N([C@H](C)c3nc4ccc(F)cc4s3)C2=O)cc1 [Compound 3c, 1-(4-Methoxyphenyl)-3-[(1R)-1-(6-fluoro-1,3-benzothiazol-2-yl)ethyl]imidazolidine-2,4,5-trione] | 0.69 ± 0.02 |  | 13.2 ± 0.22 µM | 22.4 ± 0.21 µM |  | 
C[C@H](c1nc2ccc(F)cc2s1)N1C(=O)C(=O)N(c2ccc(Cl)cc2)C1=O [Compound 3e, 1-(4-Chlorophenyl)-3-[(1R)-1-(6-fluoro-1,3-benzothiazol-2-yl)ethyl]imidazolidine-2,4,5-trione] |  |  |  |  | 25.7 ± 0.29 µM | 13.8 ± 0.13 µM
CC(C)c1ccc(N2C(=O)C(=O)N([C@H](C)c3nc4ccc(F)cc4s3)C2=O)cc1 [Compound 3d, 1-(4-Isopropylphenyl)-3-[(1R)-1-(6-fluoro-1,3-benzothiazol-2-yl)ethyl]imidazolidine-2,4,5-trione] |  |  | 1.66 ± 0.14 µM | 16.6 ± 0.29 µM |  | 
C[C@H](c1nc2ccc(F)cc2s1)N1C(=O)C(=O)N(Cc2ccccc2)C1=O [Compound 3k, 1-Benzyl-3-[(1R)-1-(6-fluoro-1,3-benzothiazol-2-yl)ethyl]imidazolidine-2,4,5-trione] | 1.06 ± 0.09 |  | 12.6 ± 0.11 µM | 18.6 ± 0.16 µM |  | 
